Measurements reported in patent US8354433B2, “Anti-inflammatory agents as virostatic compounds” (4SC AG, priority 2009, dated 2013).
Where two headings read alike, the source gives them in different places.

What was measured:
[1] = test system: HCV subgenomic replicon of genotype 1b; experiment: microbe, parasite or virus in culture; assay type: cell-based; settings: Hepatitis C virus, 24 h, read-out: Antiviral Activity EC50/nM
[2] = in vitro; settings: human
[3] = test system: human PBMCs; experiment: MTS cytotoxicity in human PBMCs; settings: seven days
[4] = test system: YFV Strain 17D; experiment: microbe, parasite or virus in culture; assay type: cell-based; settings: Yellow fever virus, Vero, read-out: Antiviral Activity EC50
[5] = test system: HBV; experiment: Anti-HBV evaluation with HepG2 2.2.15 cells (extracellular HBV DNA, qPCR); assay type: cell-based; settings: Hepatitis B virus, read-out: Antiviral Activity EC50
Procedure: Compounds were solubilized in DMSO in a concentration of 40 mM. (−)-2′-Desoxy-3′-thiacytidin (3TC) was used as the positive antiviral controls. The high-test concentrations were 10 μM for 4SC compounds and 1 μM for 3TC.
Briefly, HepG2-2.2.15 cells were plated in 96-well microtiter plates. Only the interior wells were utilized to reduce “edge effects” observed during cell culture; the exterior wells were filled with complete medium to help minimize sample evaporation. After 16-24 hours the confluent monolayer of HepG2-2.2.15 cells was washed and the medium was replaced with complete medium containing various concentrations of a test compound in triplicate. 3TC was used as the positive control, while media alone was added to cells as a negative control. Three days later the culture medium was replaced with fresh medium containing the appropriately diluted drug. Six days following the initial administration of the test compound, the cell culture supernatant was collected, treated with pronase and then used in a quantitative qPCR TaqMan assay. Antiviral activity was calculated from the reduction in HBV DNA levels (IC50). Cell Titer 96 ®AQueous One Solution Cell Proliferation kit (Promega, Madison, Wis.) was used to measure cell viability which is used to calculate toxicity (TC50). The therapeutic index (TI) was calculated as TC50/IC50

[6] = test system: HCMV AD 169-GFP; experiment: microbe, parasite or virus in culture; assay type: cell-based, Human Cytomegalovirus; settings: Human betaherpesvirus 5, Fibroblast, 168 h, read-out: Antiviral Activity EC50
[7] = target: dihydroorotate dehydrogenase (DHODH) (Homo sapiens, UniProt Q02127); experiment: DHODH inhibition, in vitro assay; assay type: biochemical
Chain of dihydroorotate dehydrogenase (DHODH) (Q02127 whole entry): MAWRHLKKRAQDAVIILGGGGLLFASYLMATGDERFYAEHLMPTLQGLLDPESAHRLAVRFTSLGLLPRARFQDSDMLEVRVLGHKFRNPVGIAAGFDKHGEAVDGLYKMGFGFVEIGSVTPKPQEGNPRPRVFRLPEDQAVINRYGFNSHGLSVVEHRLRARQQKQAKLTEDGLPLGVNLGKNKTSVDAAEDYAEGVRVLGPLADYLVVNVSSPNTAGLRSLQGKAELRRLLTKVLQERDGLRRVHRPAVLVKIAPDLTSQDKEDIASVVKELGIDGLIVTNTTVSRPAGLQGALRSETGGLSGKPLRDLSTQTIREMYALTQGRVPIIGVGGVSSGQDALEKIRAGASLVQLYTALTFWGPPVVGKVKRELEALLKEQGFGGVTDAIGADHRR

[8] = test system: HIV-191US005; experiment: Anti-HIV efficacy in fresh human PBMCs (RT activity and p24 ELISA); assay type: cell-based, HIV-1; settings: Human immunodeficiency virus 1, PBMC, 168 h
[9] = test system: DENV Type 2 (New Guinea); experiment: microbe, parasite or virus in culture; assay type: cell-based; settings: Dengue virus, Vero C1008, read-out: Antiviral Activity EC50
[10] = test system: WNV Strain NY-99; experiment: microbe, parasite or virus in culture; assay type: cell-based; settings: West Nile virus, Vero, read-out: Antiviral Activity EC50
[11] = test system: Influenza Virus (H7N7); experiment: microbe, parasite or virus in culture; assay type: cell-based, avian influenza virus (Fowl Plaque Virus; settings: unidentified influenza virus, H7N7, A549, 16 h; for inhibition at 30 µM: read-out: Antiviral Activity % Inhibition
[12] = Cell viability in HepG2-2.2.15 cells (Cell Titer 96); assay type: cell-based; settings: human, six days, read-out: TC50
Procedure: Anti-HBV assay was performed as described in Korba, B F and Milman, G., 1991 (A cell culture assay for compound which inhibits hepatitis B virus replication. Antiviral Res. 15: 217-228) and in Korba, B F and Gerin, J L., 1992 (Use of a standardized cell culture assay to assess activities of nucleoside analogs again hepatitis B virus replication. Antiviral Res. 19: 55-70) with modifications to measure extracellular HBV DNA copy with real-time PCR (qPCR/TaqMan). Briefly, HepG2-2.2.15 cells were plated in 96-well microtiter plates. Only the interior wells were utilized to reduce “edge effects” observed during cell culture; the exterior wells were filled with complete medium to help minimize sample evaporation. After 16-24 hours the confluent monolayer of HepG2-2.2.15 cells was washed and the medium was replaced with complete medium containing various concentrations of a test compound in triplicate. 3TC was used as the positive control, while media alone was added to cells as a negative control. Three days later the culture medium was replaced with fresh medium containing the appropriately diluted drug. Six days following the initial administration of the test compound, the cell culture supernatant was collected, treated with pronase and then used in a quantitative qPCR TaqMan assay. Antiviral activity was calculated from the reduction in HBV DNA levels (IC50). Cell Titer 96 ®AQueous One Solution Cell Proliferation kit (Promega, Madison, Wis.) was used to measure cell viability which is used to calculate toxicity (TC50). The therapeutic index (TI) was calculated as TC50/IC50

[13] = test system: RSV Strain Long; experiment: microbe, parasite or virus in culture; assay type: cell-based; settings: human respiratory syncytial virus, Vero, read-out: Antiviral Activity EC50
[14] = test system: ET cell line (luc-ubi-neo/ET), Huh7; experiment: CytoTox-1 cytotoxicity in ET cells; settings: 24 h, cell unit μM
[15] = test system: Ebola Virus; experiment: microbe, parasite or virus in culture; assay type: cell-based; settings: Zaire ebolavirus, Vero, read-out: Antiviral Activity % Inhibition
[16] = in vitro; settings: African green monkey
[17] = in vitro; settings: African green monkey; remark: listed apart in the source
[18] = in vitro; settings: African green monkey; remark: listed apart in the source
[19] = test system: Vero cells; settings: African green monkey
[20] = test system: Vero cells; settings: African green monkey; remark: listed apart in the source
[21] = test system: Vero cells; settings: African green monkey; remark: listed apart in the source
[22] = 144 h, HepG2 2.2.15 cells, HBV DNA, six days
[23] = Table 3, read-out: DHODH IC50/nM
[24] = Table 4, read-out: DHODH IC50/nM
[25] = Table 5, read-out: DHODH IC50/nM
[26] = Table 6, read-out: DHODH IC50/nM
[27] = Table 7, read-out: DHODH IC50/nM
[28] = Table 8, read-out: DHODH IC50/nM
[29] = Endpoint RT, seven days, read-out: EC50/nM
[30] = Endpoint RT, seven days, read-out: EC90/nM
[31] = Endpoint p24, seven days, read-out: EC50/nM
[32] = Endpoint p24, seven days, read-out: EC90/nM

Structure (SMILES) | EC50 [1] | TC50/nM [3] | EC50 [4] | EC50 [5, 22] | IC50 [7, 23] | IC50 [7, 24] | IC50 [7, 25] | IC50 [7, 26] | IC50 [7, 27] | IC50 [7, 28] | EC50 [8, 29] | EC90 [8, 30] | EC50 [8, 31] | EC90 [8, 32] | EC50 [9] | EC50 [10] | EC50 [11] | CC50 at 6 days [12] | EC50 [13] | inhibition at 31.6 µM [15] | other results
O=C(Nc1c(F)c(F)c(-c2cccc(OC(F)(F)F)c2)c(F)c1F)c1ccsc1C(=O)O [Compound 1, 3-(2,3,5,6-Tetrafluoro-3′-trifluoromethoxy-biphenyl-4-ylcarbamoyl)-thiophene-2-carboxylic acid] | 23 nM | >100000 nM | 232 nM | 4800 nM | < 20 nM | < 20 nM | < 20 nM | < 20 nM | < 20 nM | < 20 nM | 120 nM | 300 nM | 170 nM | 300 nM | 72 nM | 735 nM | ~1500 nM | > 10000 nM | 2100 nM |  | CC50 at 7 days [2]: > 10000 nM; EC50 [6]: 780 nM; IC50 [7]: < 20 nM; IC50 ([7]; Table 10, read-out: DHODH IC50/nM): < 20 nM; IC50 ([7]; read-out: DHODH IC50/nM, Table 2): < 20 nM; TC50 [14]: >100 µM
O=C(O)C1=C(C(=O)Nc2c(F)c(F)c(-c3cccc(OC(F)(F)F)c3)c(F)c2F)CCC1 [Compound 4, 2-(2,3,5,6-Tetrafluoro-3′-trifluoromethoxy-biphenyl-4-ylcarbamoyl)-cyclopent-1-enecarboxylic acid] | 80 nM | 42400 nM | 681 nM |  |  |  | < 20 nM | < 20 nM |  | < 20 nM | 60 nM | 210 nM | 80 nM | 240 nM | 67 nM | > 10000 nM | ~3000 nM | > 10000 nM | 2150 nM | > 90% | EC50 ([5]; HepG2 2.2.15, 144 h): > 10000 nM; inhibition at 100 µM [15]: > 98%; IC50 ([7]; DHODH IC50/nM, Table 1): < 20 nM; IC50 ([7]; DHODH IC50/nM, Table 2): < 20 nM; IC50 ([7]; DHODH IC50/nM, Table 3): < 20 nM; IC50 ([7]; DHODH IC50/nM, Table 4): < 20 nM; IC50 ([7]; DHODH IC50/nM, Table 7): < 20 nM; IC50 ([7]; Table 9, read-out: DHODH IC50/nM): < 20 nM; inhibition at 30 µM [11]: > 90%
COc1cccc(-c2ccc(NC(=O)C3=C(C(=O)O)CCC3)c(F)c2)c1 [Compound 6, 2-(3-Fluoro-3′-methoxy-biphenyl-4-ylcarbamoyl)-cyclopent-1-enecarboxylic acid] | 4640 nM | >100000 nM |  |  |  |  |  |  |  |  |  |  |  |  |  |  |  |  |  | 90% | inhibition at 100 µM [15]: > 98%; EC50 ([8]; read-out: EC50/nM, Endpoint RT, seven days): 2190 nM; EC50 ([8]; read-out: EC50/nM, Endpoint p24, seven days): 1970 nM; EC90 ([8]; read-out: EC90/nM, Endpoint RT, seven days): 6110 nM; EC90 ([8]; read-out: EC90/nM, Endpoint p24, seven days): 6250 nM; inhibition at 30 µM [11]: > 80%
O=C(Nc1c(F)cc(-c2cccc(OC(F)(F)F)c2)cc1F)c1ccsc1C(=O)O [Compound 17, 3-(3,5-difluoro-3′-(trifluoromethoxy)biphenyl-4-ylcarbamoyl)thiophene-2-carboxylic acid] |  |  | 2250 nM | 6400 nM | < 20 nM | < 20 nM |  | < 20 nM | < 20 nM | < 20 nM |  |  |  |  | > 10000 nM | 6390 nM | ~3000 nM | > 10000 nM | > 10000 nM |  | CC50 [16]: > 10000 nM; CC50 [17]: > 10000 nM; CC50 [18]: > 10000 nM; IC50 ([7]; DHODH IC50/nM, Table 5): < 20 nM
NC(=O)c1ncn([C@@H]2O[C@H](CO)[C@@H](O)[C@H]2O)n1 [Ribavirin, reference compound] |  |  | 7.33 µg/mL |  |  |  |  |  |  |  |  |  |  |  | 26.5 µg/mL | 22 µg/mL |  |  | 7.95 µg/mL |  | TC50 [19]: >100 µg/mL; TC50 [20]: >100 µg/mL; TC50 [21]: >100 µg/mL
